From patent US8791155B2, “Chroman derivatives” (Edison Pharmaceuticals, Inc., priority 2003, dated 2014)
pEC50, pIC50: −log10 of the molar value.

How the values were obtained:
[1] = molecular target: T1, porcine leukocyte 12/15-lipoxygenase (Sus scrofa, UniProt P16469); assay: 12/15-Lipoxygenase enzyme assay; type: biochemical; conditions: 70 μM arachidonic acid, pH 7.4, 10 minute incubation; read-out: IC50, inhibition of 12/15-Lipoxygenase
T1 construct: purchased Cayman 60300
T1 sequence (P16469 1-663): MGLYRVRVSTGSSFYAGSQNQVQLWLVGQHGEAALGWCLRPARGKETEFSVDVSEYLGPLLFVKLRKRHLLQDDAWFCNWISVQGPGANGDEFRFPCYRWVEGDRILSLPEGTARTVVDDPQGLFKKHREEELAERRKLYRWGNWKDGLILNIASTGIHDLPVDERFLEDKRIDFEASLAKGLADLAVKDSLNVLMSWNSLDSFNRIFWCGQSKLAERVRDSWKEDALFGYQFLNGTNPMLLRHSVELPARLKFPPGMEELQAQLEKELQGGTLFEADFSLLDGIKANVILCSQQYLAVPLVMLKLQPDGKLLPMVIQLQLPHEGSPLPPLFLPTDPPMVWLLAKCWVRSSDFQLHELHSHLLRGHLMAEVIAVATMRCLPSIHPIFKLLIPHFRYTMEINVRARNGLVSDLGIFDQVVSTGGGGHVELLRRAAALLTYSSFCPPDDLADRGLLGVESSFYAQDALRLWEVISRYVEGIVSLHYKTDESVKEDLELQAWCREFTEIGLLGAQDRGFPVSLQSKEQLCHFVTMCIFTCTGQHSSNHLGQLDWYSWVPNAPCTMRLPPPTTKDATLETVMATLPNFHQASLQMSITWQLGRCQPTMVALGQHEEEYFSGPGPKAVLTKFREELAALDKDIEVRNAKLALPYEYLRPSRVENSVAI
Source text: (§1) In vitro evaluation of the ability of a composition to inhibit the enzymes 5-lipoxygenase, 15-lipoxygenase, or 12/15 lipoxygenase as described in Walidge, N. B. et al Anal. Biochem., 231: 354-358 (1995) using a high throughput colorimetric method; as well as in vitro evaluation of inhibiting LTB4 is described in Examples.
This procedure was used for measuring the enzymatic activity of porcine leukocyte 12/15-lipoxygenase using a colorimetric method based on the ferric oxidation of xylenol orange.
(§2) • 96 well flat bottom microfilter plates (VWR, Catalog #62402-933 9295) • Lipoxygenase screening assay buffer (Cayman, Catalog #760710) • Porcine leukocyte 12/15-lipoxygenase (Cayman, Catalog #60300) • Arachidonic Acid (Sigma, Catalog #A3555) • Xylenol orange tetrasodium salt (Aldrich, Catalog #227854) • Iron (II) sulfate heptahydrate (Sigma, Catalog #F7002) • Sulfuric acid (95-98%) [18M] • Methanol Procedure
(§3) Porcine Leukocyte 12/15-lipoxygenase (Cayman Cat #60300) was used in this assay. Test compound and/or vehicle was added to 1.3 U 12/15-lipoxygenase in 50 mM Tris-HCl buffer, pH 7.4. The reaction was initiated by addition of 70 μM arachidonic acid in Tris-HCl buffer, pH 7.4, and terminated after a 10 minute incubation at room temperature by addition of FOX reagent (25 mM sulphuric acid, 100 μM xylenol orange, 100 μM iron (II) sulphate, methanol:water 9:1). The yellow color of acidified xylenol orange was converted to a blue color by the lipid hydroperoxide-mediated oxidation of Fe 2+ ions and the interaction of the resulting Fe 3+ ions with the dye. The complex was allowed to form during a 1 hour incubation at room temperature with shaking. Absorbance of the Fe 3+ complex was then measured at […] using a spectrophotometer.
(§4) Negative controls contained enzyme during the incubation step but substrate was not added until after the FOX reagent.
Compounds are screened at 5 concentrations in triplicate starting at 10 μM

[2] = tested on: dopaminergic neuronal cell line; assay: High glutamate-induced oxidative stress assay (HGOS); type: cell-based; conditions: Mus musculus; 30 mM glutamate, 16 hrs; read-out: EC50, protection against HGOS cell injury and cell death
Source text: Protection against redox stress can be evaluated in cell culture using high glutamate induced oxidative stress (HGOS) in mouse dopaminergic cell lines. The cytotoxic effect of glutamate is not due to excitotoxicity, as this cell line is devoid of inotropic glutamate receptors. Rather, the glutamate-induced toxicity of dopaminergic cells is associated with an inhibition of cystine transport which subsequently leads to depletion of intracellular glutathione (GSH) levels (Murphy T. H., et al. Neuron 2, 1547-1558, 1989), activation of neuronal 12-lipoxygenase (Li, Y. et al., Neuron 19, 453-463, 1997), increased ROS production (Tan S. et al., J. Cell Biol. 141, 1423-1432, 1998) and elevated intracellular Cat^2+ (Li, Y. et al., see supra). Some molecules were measured for their ability to protect cells against glutamate-induced stress and the assay is detailed in Examples.
This procedure was used to induce high glutamate-induced oxidative stress (HGOS) in a dopaminergic neuronal cell line. Using this assay the potency and efficacy of test articles against HGOS neuronal cell injury and cell death was established in a high throughput manner.
• Dopaminergic neuronal cell lines • DMEM-No Glucose (Life Technologies Cat #11966-025) • L-glutamine (Life Technologies Cat #25030-081) • L-glutamic acid, monosodium salt (Sigma Cat #G5889) • D-glucose (Sigma Cat #G-6151) • 10×HBSS buffer (pH 7.4) (950 ml Pyrogen-free water, 2.44 g/L MgCl2.6H20, 3.73 g/L KCl, 59.58 g/L Hepes, 58.44 g/L NaCl, 1.36 g/L KH2PO4, 1.91 g/L CaCl2.2H2O and pH to […] with HCl) • Cell Tracker Green fluorescent dye (Molecular Probes, Cat #2925). Prepare a 5NM solution in pre-warmed HBSS just prior to use. • Sterile 96-well plates precoated with poly-D-lysine (Corning Catalog #3665) • 96-well deep well mother plate, DyNA Block 1000 (VWR Catalog #40002-008) Neuronal Cells
The cells were seeded into 96-well plates at a density of 2000 per well and left to grow for 72 hours in a 33° C. incubator with 5% CO2 in air atmosphere. The passage number of the cells for each assay experiment were no later than p11 in order to minimize experimental variation.
All compounds were dissolved in DMEM-No Glu containing 1 mM glucose, 30 mM glutamate and 1× Pen/Strep. DMEM-No Glu with 1 mM glucose and 1× P/S was used as the negative control, DMEM-No Glucose with 1 mM glucose, […] glutamate was used as a positive control and 100 NM Glutathione was added to the positive control as a standard. All of the procedures for this involving the making and dilution of compounds were performed using aseptic conditions and with minimal light.
The plates were removed from the incubator and examined under the microscope for morphological appearance and density. Using an aseptic technique and an 8-channel aspirator the media was carefully removed from the cells and replaced with 200 μI of 1×HBSS. This was done as quickly as possible to prevent the cells drying out. The plates were then placed in the humidified 37° C. incubators of the Biomek 2000 Side Loader. Four plates were washed at a time so as to minimize the time that the cells were sitting in 1×HBSS prior to addition of the compound test solution. Experimental Setup
The Beckman Biomek workstations were used to load the compounds and controls from the mother plates onto the cell plates that were prewashed with HBSS under sterile conditions. The plates were incubated in the upper HTS incubator at 37° C. in 5% CO2 for exactly 16 hrs. The following day, using the Beckman Biomek workstations, the plates were removed from the incubator. Using Cell Tracker Addition, the compounds were removed from the plates, washed once with […] of pre-warmed 1×HBSS and then 100 μL of 5 μM Cell Tracker Green was added to each well. The plates were incubated at 37° C. for 30 min to allow the dye to enter the cell and be cleaved by the esterases. […]

[3] = molecular target: T2, human recombinant 5-lipoxygenase (Homo sapiens, UniProt P09917); assay: 5-Lipoxygenase enzyme assay; type: biochemical; conditions: 70 μM arachidonic acid, pH 7.4, 10 minute incubation; read-out: IC50, inhibition of 5-Lipoxygenase
T2 construct: purchased Cayman 60402
T2 sequence (P09917 1-674): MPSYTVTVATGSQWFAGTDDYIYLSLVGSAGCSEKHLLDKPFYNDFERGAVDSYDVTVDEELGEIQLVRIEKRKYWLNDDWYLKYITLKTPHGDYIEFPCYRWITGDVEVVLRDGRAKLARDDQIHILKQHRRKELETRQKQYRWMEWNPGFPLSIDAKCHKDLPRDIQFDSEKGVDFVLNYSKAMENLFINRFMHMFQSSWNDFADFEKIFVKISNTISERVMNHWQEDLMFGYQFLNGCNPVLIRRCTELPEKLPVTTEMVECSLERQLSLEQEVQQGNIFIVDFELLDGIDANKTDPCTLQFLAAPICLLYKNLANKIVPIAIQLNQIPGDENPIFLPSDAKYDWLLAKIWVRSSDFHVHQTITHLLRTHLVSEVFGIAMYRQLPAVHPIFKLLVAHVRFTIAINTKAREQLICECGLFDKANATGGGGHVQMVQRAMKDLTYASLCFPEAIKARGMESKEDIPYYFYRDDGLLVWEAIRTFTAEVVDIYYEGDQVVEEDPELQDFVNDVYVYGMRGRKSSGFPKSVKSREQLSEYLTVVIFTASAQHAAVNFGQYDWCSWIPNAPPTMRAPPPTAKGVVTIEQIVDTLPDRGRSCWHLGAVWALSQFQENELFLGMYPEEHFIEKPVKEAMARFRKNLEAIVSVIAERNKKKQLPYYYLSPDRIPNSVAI
Source text: as §1
This procedure was used for measuring the enzymatic activity of human recombinant 5-lipoxygenase using a colorimetric method based on the ferric oxidation of xylenol orange.
as §2, with “Human recombinant 5-lipoxygenase” for “Porcine leukocyte 12/15-lipoxygenase”, “#60402)” for “#60300)”, “[18M]—Methanol” for “[18M] • Methanol”
as §3, with “Human recombinant 5-lipoxygenase” for “Porcine Leukocyte 12/15-lipoxygenase”, “#60402)” for “#60300)”, “The test” for “Test”, “0.51-1 5-lipoxygenase” for “1.3 U 12/15-lipoxygenase”
as §4
Compounds were screened at 5 concentrations in triplicate starting at 10 μM

CC(=CCc1c(O)c(C)c(C)c2c1CCC(C)(C)O2)CCCl [5-(5-Chloro-3-methyl-pent-2-enyl)-2,2,7,8-tetramethyl-chroman-6-ol] was tested, and the pIC50 [1] was over 6.00.

Cc1c(C)c2c(c(-c3ccc(S(C)(=O)=O)cc3)c1O)CCC(C)(C)O2 [5-(4-Methanesulfonyl-phenyl)-2,2,7,8-tetramethyl-chroman-6-ol] gave a pEC50 [2] of over 5.30.

In the case of Cc1cc(C2(C)CCc3c(C)c(O)c(C)c(Cl)c3O2)c(C)s1 (stereo not shown) [8-Chloro-2-(2,5-dimethyl-thiophen-3-yl)-2,5,7-trimethyl-chroman-6-ol], the pIC50 [1] was over 6.00.

Cc1c(C)c2c(c(-c3ccc(C(C)(C)C)cc3)c1O)CCC(C)(C)O2 [5-(4-tert-Butyl-phenyl)-2,2,7,8-tetramethyl-chroman-6-ol] gave a pIC50 [3] of over 6.00.

Cc1c(C)c2c(c(-c3ccc(Cl)cc3)c1O)CCC(C)(C)O2 [5-(4-Chloro-phenyl)-2,2,7,8-tetramethyl-chroman-6-ol] showed a pIC50 [3] of over 6.00.

Cc1c(C)c2c(c(-c3ccc(N(C)C)cc3)c1O)CCC(C)(C)O2 [5-(4-Dimethylamino-phenyl)-2,2,7,8-tetramethyl-chroman-6-ol] was tested, and the pEC50 [2] was over 5.30.

In the case of COc1cc(-c2c(O)c(C)c(C)c3c2CCC(C)(C)O3)cc(OC)c1OC [2,2,7,8-Tetramethyl-5-(3,4,5-trimethoxy-phenyl)-chroman-6-ol], the pIC50 [3] was over 6.00.

COCOc1cc2c(c(C)c1C)OC(C)(CCC=C1SC(=O)NC1=O)CC2 (stereo not shown) [5-[3-(6-Methoxymethoxy-2,7,8-trimethyl-chroman-2-yl)-propylidene]-thiazolidine-2,4-dione] was tested, and the pEC50 [2] was over 5.30.

For Cc1c(O)cc(-c2c(O)c(C)c(C)c3c2CCC(C)(C)O3)c(O)c1C [5-(6-Hydroxy-2,2,7,8-tetramethyl-chroman-5-yl)-2,3-dimethyl-benzene-1,4-diol], the pIC50 [3] was over 6.00.

Work on Cc1cc2c(c(C)c1O)CCC(CCCCl)(c1cccs1)O2 (stereo not shown) [2-(3-Chloro-propyl)-5,7-dimethyl-2-thiophen-2-yl-chroman-6-ol] yielded a pIC50 [1] of over 6.00.

Cc1c(C)c2c(c(-c3ccccc3)c1O)CCC(C)(C)O2 [2,2,7,8-Tetramethyl-5-phenyl-chroman-6-ol] showed a pEC50 [2] of over 5.30.

With Cc1c(C)c2c(c(Cl)c1O)CCC(C)(c1cccs1)O2 (stereo not shown) [5-Chloro-2,7,8-trimethyl-2-thiophen-2-yl-chroman-6-ol] the pIC50 [1] was over 6.00.

CCCC1=NN(C)C(=O)C1=Cc1c(O)c(C)c(C)c2c1CCC(C)(C)O2 [4-(6-Hydroxy-2,2,7,8-tetramethyl-chroman-5-ylmethylene)-2-methyl-5-propyl-2,4-dihydro-pyrazol-3-one] was tested, and the pEC50 [2] was over 5.30.

Cc1c(C)c2c(c(-c3ccncc3)c1O)CCC(C)(C)O2 [2,2,7,8-Tetramethyl-5-pyridin-4-yl-chroman-6-ol] showed a pEC50 [2] of over 5.30.

Cc1c(C)c2c(c(C)c1O)CCC(C)(C=C(Cl)Cl)O2 (stereo not shown) [2-(2,2-Dichloro-vinyl)-2,5,7,8-tetramethyl-chroman-6-ol] gave a pIC50 [3] of over 6.00 and a pIC50 [1] of over 6.00.
